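Grown in 96-well plates, cells were treated for 48 hours with each compound at five concentrations. Insufficient inhibition: endpoint recorded as highest concentration tested. GI50: concentration for 50% inhibition of growth.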 Calls of active or inactive are those of the source. Rule as the data show it: active = GI50 up to about 1.1 µM and inactive = higher.
Legend:
Test in all cases: DTP human tumour cell line panel, 48 h
SF-539 = test system: SF-539
COLO 205 = test system: COLO 205
UO-31 = test system: UO-31
OVCAR-4 = test system: OVCAR-4
KM12 = test system: KM12
RPMI-8226 = test system: RPMI-8226
OVCAR-8 = test system: OVCAR-8
786-0 = test system: 786-0
DMS-114 = test system: DMS-114
HCT-116 = test system: HCT-116
SNB-19 = test system: SNB-19
SK-OV-3 = test system: SK-OV-3
HOP-18 = test system: HOP-18
SF-268 = test system: SF-268
SF-295 = test system: SF-295
NCI-H23 = test system: NCI-H23
NCI-H226 = test system: NCI-H226
XF498 = test system: XF498
DMS-273 = test system: DMS-273
LXFL 529 = test system: LXFL 529
EKVX = test system: EKVX
U-251 = test system: U-251
HOP-92 = test system: HOP-92
HT-29 = test system: HT-29
HCT-15 = test system: HCT-15
CAKI-1 = test system: CAKI-1
LOX IMVI = test system: LOX IMVI
CCRF-CEM = test system: CCRF-CEM
K562 = test system: K562
SK-MEL-5 = test system: SK-MEL-5
SR = test system: SR
SK-MEL-2 = test system: SK-MEL-2
SK-MEL-28 = test system: SK-MEL-28
SNB-75 = test system: SNB-75
HCC 2998 = test system: HCC 2998
UACC-257 = test system: UACC-257
SN12C = test system: SN12C
NCI-H522 = test system: NCI-H522
UACC-62 = test system: UACC-62
SW-620 = test system: SW-620
OVCAR-3 = test system: OVCAR-3
KM-20L2 = test system: KM-20L2
HOP-62 = test system: HOP-62
OVCAR-5 = test system: OVCAR-5
TK-10 = test system: TK-10
HL-60 = test system: HL-60
M19-MEL = test system: M19-MEL
IGROV-1 = test system: IGROV-1
MOLT-4 = test system: MOLT-4
A498 = test system: A498
DLD-1 = test system: DLD-1
ACHN = test system: ACHN
M14 = test system: M14
NCI-H460 = test system: NCI-H460
A549 = test system: A549
Malme-3M = test system: Malme-3M
RXF 393 = test system: RXF 393
SNB-78 = test system: SNB-78

O=c1c2cc(O)ccc2n2nnc3ccc(NCCNCCO)c1c32
GI50 (SF-539): 4.56 µM (inactive) | GI50 (COLO 205): 5.33 µM (inactive) | GI50 (UO-31): 26.9 µM (inactive) | GI50 (OVCAR-4): 5.09 µM (inactive) | GI50 (KM12): 20.2 µM (inactive) | GI50 (RPMI-8226): 17.1 µM (inactive) | GI50 (OVCAR-8): 3.53 µM (inactive) | GI50 (786-0): 4.86 µM (inactive) | GI50 (DMS-114): 2.28 µM (inactive) | GI50 (HCT-116): 4.62 µM (inactive) | GI50 (SNB-19): 4.09 µM (inactive) | GI50 (SK-OV-3): 5.08 µM (inactive) | GI50 (HOP-18): 26.9 µM (inactive) | GI50 (SF-268): 1.39 µM (inactive) | GI50 (SF-295): 15.2 µM (inactive) | GI50 (NCI-H23): 11.7 µM (inactive) | GI50 (NCI-H226): 2.6 µM (inactive) | GI50 (XF498): 1.71 µM (inactive) | GI50 (DMS-273): 9.18 µM (inactive) | GI50 (LXFL 529): 3.2 µM (inactive) | GI50 (EKVX): 26.2 µM (inactive) | GI50 (U-251): 1.27 µM (inactive) | GI50 (HOP-92): 3.49 µM (inactive) | GI50 (HT-29): 8.77 µM (inactive) | GI50 (HCT-15): 77.8 µM | GI50 (CAKI-1): 5.68 µM (inactive) | GI50 (LOX IMVI): 3.23 µM (inactive)

O=C1OC2C=CC1C1(CCOC1=O)C2 (stereo not given)
GI50 (CCRF-CEM): > 100 µM (inactive) | GI50 (SF-539): > 100 µM (inactive) | GI50 (K562): > 100 µM (inactive) | GI50 (SK-MEL-5): > 100 µM (inactive) | GI50 (SR): > 100 µM (inactive) | GI50 (SK-MEL-2): > 100 µM (inactive) | GI50 (SK-MEL-28): > 100 µM (inactive) | GI50 (COLO 205): > 100 µM (inactive) | GI50 (UO-31): > 100 µM (inactive) | GI50 (SNB-75): 46.8 µM (inactive) | GI50 (HCC 2998): > 100 µM (inactive) | GI50 (UACC-257): > 100 µM (inactive) | GI50 (SN12C): > 100 µM (inactive) | GI50 (OVCAR-4): > 100 µM (inactive) | GI50 (KM12): > 100 µM (inactive) | GI50 (RPMI-8226): > 100 µM (inactive) | GI50 (OVCAR-8): > 100 µM (inactive) | GI50 (786-0): > 100 µM (inactive) | GI50 (NCI-H522): > 100 µM (inactive) | GI50 (UACC-62): 28.8 µM (inactive) | GI50 (SW-620): > 100 µM (inactive) | GI50 (OVCAR-3): > 100 µM (inactive) | GI50 (DMS-114): > 100 µM (inactive) | GI50 (HCT-116): > 100 µM (inactive) | GI50 (KM-20L2): > 100 µM (inactive) | GI50 (SNB-19): > 100 µM (inactive) | GI50 (HOP-62): > 100 µM (inactive) | GI50 (HOP-18): > 100 µM (inactive) | GI50 (OVCAR-5): > 100 µM (inactive) | GI50 (TK-10): > 100 µM (inactive) | GI50 (SF-268): > 100 µM (inactive) | GI50 (HL-60): > 100 µM (inactive) | GI50 (M19-MEL): > 100 µM (inactive) | GI50 (NCI-H23): > 100 µM (inactive) | GI50 (NCI-H226): > 100 µM (inactive) | GI50 (XF498): > 100 µM (inactive) | GI50 (IGROV-1): 48.8 µM (inactive) | GI50 (MOLT-4): > 100 µM (inactive) | GI50 (DMS-273): > 100 µM (inactive) | GI50 (A498): > 100 µM (inactive) | GI50 (DLD-1): > 100 µM (inactive) | GI50 (LXFL 529): > 100 µM (inactive) | GI50 (EKVX): > 100 µM (inactive) | GI50 (ACHN): > 100 µM (inactive) | GI50 (M14): > 100 µM (inactive) | GI50 (U-251): > 100 µM (inactive) | GI50 (HOP-92): > 100 µM (inactive) | GI50 (NCI-H460): > 100 µM (inactive) | GI50 (A549): > 100 µM (inactive) | GI50 (Malme-3M): > 100 µM (inactive) | GI50 (HCT-15): > 100 µM | GI50 (CAKI-1): > 100 µM (inactive) | GI50 (LOX IMVI): > 100 µM (inactive)

COc1cc2cc3c4c(cc(OC)c(OC)c4c2cc1OC)CCN3C(=O)OCCBr
GI50 (CCRF-CEM): 20.6 µM (inactive) | GI50 (SF-539): 22.4 µM (inactive) | GI50 (SK-MEL-5): 53.1 µM (inactive) | GI50 (SR): 18.7 µM (inactive) | GI50 (SK-MEL-2): > 100 µM (inactive) | GI50 (SK-MEL-28): > 100 µM (inactive) | GI50 (COLO 205): 78 µM (inactive) | GI50 (UO-31): > 100 µM (inactive) | GI50 (SNB-75): 46 µM (inactive) | GI50 (HCC 2998): 42.3 µM (inactive) | GI50 (UACC-257): > 100 µM (inactive) | GI50 (SN12C): 45 µM (inactive) | GI50 (KM12): 60.7 µM (inactive) | GI50 (OVCAR-8): > 100 µM (inactive) | GI50 (786-0): 55.8 µM (inactive) | GI50 (NCI-H522): 37.6 µM (inactive) | GI50 (UACC-62): 60.4 µM (inactive) | GI50 (SW-620): 60.8 µM (inactive) | GI50 (OVCAR-3): > 100 µM (inactive) | GI50 (HCT-116): 50.9 µM (inactive) | GI50 (KM-20L2): 43.4 µM (inactive) | GI50 (SNB-19): > 100 µM (inactive) | GI50 (SK-OV-3): > 100 µM (inactive) | GI50 (OVCAR-5): > 100 µM (inactive) | GI50 (TK-10): > 100 µM (inactive) | GI50 (SF-268): > 100 µM (inactive) | GI50 (HL-60): 39.1 µM (inactive) | GI50 (M19-MEL): 81.8 µM (inactive) | GI50 (SF-295): > 100 µM (inactive) | GI50 (NCI-H23): 81.7 µM (inactive) | GI50 (NCI-H226): 0.259 µM (active) | GI50 (RXF 393): 42.5 µM (inactive) | GI50 (XF498): > 100 µM (inactive) | GI50 (IGROV-1): > 100 µM (inactive) | GI50 (MOLT-4): 27.8 µM (inactive) | GI50 (DMS-273): 50.2 µM (inactive) | GI50 (A498): 19.8 µM (inactive) | GI50 (DLD-1): 45.5 µM (inactive) | GI50 (EKVX): 10.1 µM (inactive) | GI50 (ACHN): 50.9 µM (inactive) | GI50 (SNB-78): > 100 µM (inactive) | GI50 (U-251): > 100 µM (inactive) | GI50 (HOP-92): 39.1 µM (inactive) | GI50 (NCI-H460): 33.2 µM (inactive) | GI50 (HT-29): 50.1 µM (inactive) | GI50 (A549): 28 µM (inactive) | GI50 (Malme-3M): > 100 µM (inactive) | GI50 (HCT-15): 60 µM | GI50 (CAKI-1): 41.9 µM (inactive) | GI50 (LOX IMVI): 32.7 µM (inactive)

COc1ccc2oc(-c3ccc(OC)c(OC)c3OC)cc(=O)c2c1
GI50 (CCRF-CEM): 35.2 µM (inactive) | GI50 (SF-539): 31.2 µM (inactive) | GI50 (K562): 40.6 µM (inactive) | GI50 (SK-MEL-2): 22.9 µM (inactive) | GI50 (SK-MEL-28): 62.2 µM (inactive) | GI50 (COLO 205): 52 µM (inactive) | GI50 (SNB-75): 48.3 µM (inactive) | GI50 (HCC 2998): 52.7 µM (inactive) | GI50 (UACC-257): 55.6 µM (inactive) | GI50 (SN12C): 53.3 µM (inactive) | GI50 (OVCAR-4): 38.7 µM (inactive) | GI50 (RPMI-8226): 17 µM (inactive) | GI50 (786-0): 72.4 µM (inactive) | GI50 (NCI-H522): 18.8 µM (inactive) | GI50 (UACC-62): 55.2 µM (inactive) | GI50 (SW-620): 65.2 µM (inactive) | GI50 (OVCAR-3): 34.7 µM (inactive) | GI50 (DMS-114): 31.8 µM (inactive) | GI50 (HCT-116): 34.6 µM (inactive) | GI50 (KM-20L2): 24 µM (inactive) | GI50 (SNB-19): 18.9 µM (inactive) | GI50 (SK-OV-3): > 100 µM (inactive) | GI50 (HOP-62): 70.3 µM (inactive) | GI50 (OVCAR-5): 28.4 µM (inactive) | GI50 (TK-10): 36.3 µM (inactive) | GI50 (SF-268): 36.4 µM (inactive) | GI50 (HL-60): 18.6 µM (inactive) | GI50 (M19-MEL): 57 µM (inactive) | GI50 (SF-295): 51.6 µM (inactive) | GI50 (NCI-H23): 43.3 µM (inactive) | GI50 (NCI-H226): 10.5 µM (inactive) | GI50 (RXF 393): 22.4 µM (inactive) | GI50 (XF498): 39.7 µM (inactive) | GI50 (IGROV-1): 83.9 µM (inactive) | GI50 (DLD-1): 49.7 µM (inactive) | GI50 (LXFL 529): 39.4 µM (inactive) | GI50 (EKVX): 33.1 µM (inactive) | GI50 (ACHN): 61.8 µM (inactive) | GI50 (M14): 55.3 µM (inactive) | GI50 (HOP-92): 50.6 µM (inactive) | GI50 (HT-29): 48.2 µM (inactive) | GI50 (A549): 36.6 µM (inactive) | GI50 (Malme-3M): 40.7 µM (inactive) | GI50 (CAKI-1): 53 µM (inactive) | GI50 (LOX IMVI): 46.8 µM (inactive)
